Measurements taken from patent US10561608B2, “Dry powder Vancomycin compositions and associated methods” (SAVARA INC., priority 2011, dated 2020).
Structures can show the parent of a compound that is named as a salt.

Columns and labels:
[1] = Reconstituted pH of powder; type: physicochemical; conditions: effect of leucine concentration
Source text: In certain embodiments, the dry powder composition may be reconstituted and the resulting reconstituted powder may have a pH greater than 3.0, preferably greater than 3.5 and most preferably greater than 4.0.
In some embodiments, the delivery efficiency of dry powder vancomycin compositions may be improved through the addition of small amounts of leucine (FIG. 2). […] In addition, the addition of leucine results in powders with more physiologically acceptable pH values. See Table 1 below for the effect of leucine concentration on powder water content, particle size and reconstituted pH.

[2] = Single dose plasma pharmacokinetics in healthy volunteers; conditions: human, in vivo, intravenous infusion 250 mg over 60 min, mean
Description: FIG. 11 is a graph depicting plasma concentrations as a function of time (semi-log) after a single dose administration of a vancomycin dry powder composition (Lot G-11-026-1) or intravenous administration of vancomycin (inhaled vancomycin dose 16 mg, circle; inhaled vancomycin dose 32 mg, triangle; inhaled vancomycin dose 80 mg, square; Intravenous infusion 250 mg over 60 min, circle with line).
In some embodiments, the dry powder vancomycin compositions of the present disclosure may provide an absolute bioavailability of 40% or more. Absolute bioavailability is calculated as AUC0-inf of vancomycin after the vancomycin composition administration divided by AUC0-inf of vancomycin after intravenous administration and adjusted for dose.
Following a single administration of a dry powder vancomycin composition (Lot […]) in eighteen healthy volunteers, a slow absorption phase followed by an elimination phase were observed. The main pharmacokinetic parameters after single dose administration of the inhaled vancomycin composition and intravenous vancomycin are shown in Table 7. AUC0-t refers to the area under the plasma concentration-time curve to the last measurable time point (24 h) calculated by the linear trapezoidal rule. AUC0-inf refers to the area under the concentration-time curve to infinity. Cmax refers to the maximum blood plasma concentration of vancomycin, and Tmax refers to the amount of time necessary to reach maximum blood plasma levels of vancomycin, and fin, refers to the elimination half-life associated with the terminal slope (Kel) of the semilogarithmic drug concentration-time curve, calculated as 0.693/Kel.

CN[C@H](CC(C)C)C(=O)N[C@H]1C(=O)N[C@@H](CC(N)=O)C(=O)N[C@H]2C(=O)N[C@H]3C(=O)N[C@H](C(=O)N[C@H](C(=O)O)c4cc(O)cc(O)c4-c4cc3ccc4O)[C@H](O)c3ccc(c(Cl)c3)Oc3cc2cc(c3OC2O[C@H](CO)[C@@H](O)[C@H](O)[C@H]2O[C@H]2C[C@](C)(N)[C@H](O)[C@H](C)O2)Oc2ccc(cc2Cl)[C@H]1O (stereo partly drawn) [API, Vancomycin hydrochloride]
Reconstituted pH [1]: 3.0

CN[C@H](CC(C)C)C(=O)N[C@H]1C(=O)N[C@@H](CC(N)=O)C(=O)N[C@H]2C(=O)N[C@H]3C(=O)N[C@H](C(=O)N[C@H](C(=O)O)c4cc(O)cc(O)c4-c4cc3ccc4O)[C@H](O)c3ccc(c(Cl)c3)Oc3cc2cc(c3OC2O[C@H](CO)[C@@H](O)[C@H](O)[C@H]2O[C@H]2C[C@](C)(N)[C@H](O)[C@H](C)O2)Oc2ccc(cc2Cl)[C@H]1O (stereo partly drawn) [IV vancomycin, Vancomycin]
AUC(0-inf) [2]: 44400 ng·h/mL | Cmax [2]: 10000 ng/mL | Tmax [2]: 0.92 h | half-life [2]: 7.23 h | AUC(0-t) ([2]; t = 24 h): 41000 ng·h/mL
